Test results from US20100222421A1, “Usage of Baicalein in the Preparation of a Pharmaceutical Composition for the Treatment of Traumatic Brain Injury” (National Defense Medical Center, priority 2009, published 2010).

Tests used:
[1] = system: TNF-α-positive cells; assay: Immunohistochemistry, TNF-α-positive cells after CCI injury; format: in vivo, rat; details: single-dose 30 mg kg^-1 i.p.; cortical tissue adjacent to contusion core, 1 day post-injury
Method: (§1) A previously described CCI injury procedure was utilized (Chen et al., 2003). Male Sprague-Dawley rats, which have body weight of 250-300 g, were anaesthetized with sodium pentobarbital (i.p.; 50 mgkg^−1; Rhone Merieux, Harlow, UK) and placed in a stereotaxic frame. A 5-mm craniotomy was performed over the left parietal cortex, centered on the coronal suture and 3 mm lateral to the sagittal suture. Considerable care was taken to avoid injury to the underlying dura. Injury was made using a pneumatic piston with a rounded metal tip (2.5 mm diameter) that was angled 22.5° C. to the vertical so that the tip was perpendicular with the brain surface at the centre of the craniotomy. A velocity of 4 ms^−1 and a deformation depth 2 mm below the dura were used. The bone flap was immediately replaced and sealed, and the scalp was closed with sutures. Body temperature was monitored throughout the surgery by a rectal probe; temperature was maintained at 37.0±0.5° C. using a heated pad. […] Testing after injury was as follows: (1) real-time quantitative RT-PCR analysis for TNF-α, IL-1β and IL-6 mRNA expression at 6 h post-injury (n=7 for each group); (2) FluoroJade B (FJB) staining, TNF-α, IL-1β and IL-6 immunohistochemistry, as well as ELISA at 24 h post-injury to assess degenerative neurons and to determine cytokine expression (n=7 for each group). […]

[2] = system: IL-1β-positive cells; assay: Immunohistochemistry, IL-1β-positive cells after CCI injury; format: in vivo, rat; details: single-dose 30 mg kg^-1 i.p.; cortical tissue adjacent to contusion core, 1 day post-injury
Method: as §1

Structure (SMILES): O=c1cc(-c2ccccc2)oc2cc(O)c(O)c(O)c12 [baicalein]
- reduction in TNF-α-positive cells relative to vehicle [1]: 37%
- reduction in IL-1β-positive cells relative to vehicle [2]: 40%
